Test results published in BigSolDB 2.1.

Nc1ccc(S(=O)(=O)O)cc1
solubility (mole fraction)
Conditions | in acetic acid | in acetone | in acetonitrile | in ethanol | in formic acid | in isopropanol | in methanol
278.15 K | – | 0.000291 | 0.000132 | 0.000213 | 0.00106 | 0.000253 | 0.000247
283.15 K | – | 0.000296 | 0.000144 | 0.000231 | 0.00116 | 0.00027 | 0.000263
288.15 K | 0.00204 | 0.000303 | 0.000165 | 0.000251 | 0.00129 | 0.000303 | 0.000284
293.15 K | 0.00217 | 0.00031 | 0.000178 | 0.000264 | 0.00139 | 0.000318 | 0.000299
298.15 K | 0.00227 | 0.000317 | 0.000195 | 0.000284 | 0.00152 | 0.000348 | 0.000318
303.15 K | 0.0024 | 0.000324 | 0.000214 | 0.0003 | 0.00166 | 0.000373 | 0.000342
308.15 K | 0.00252 | 0.000332 | 0.000235 | 0.000323 | 0.00181 | 0.000403 | 0.000362
313.15 K | 0.00264 | 0.000338 | 0.000255 | 0.000338 | 0.00196 | 0.000429 | 0.000383
318.15 K | 0.00277 | 0.000346 | 0.000274 | 0.000363 | 0.00213 | 0.000461 | 0.000403
323.15 K | 0.00291 | 0.000353 | 0.000301 | 0.000385 | 0.00231 | 0.000494 | 0.000432
328.15 K | 0.00304 | 0.00036 | 0.000324 | 0.000403 | 0.00247 | 0.000525 | 0.00045
